SMILES strings stand for the structures.

Chain of GluA1o-γ8 (GRIA1o-CACNG8 fusion construct) (P42261 other isoform, or with tags, fused parts or gaps): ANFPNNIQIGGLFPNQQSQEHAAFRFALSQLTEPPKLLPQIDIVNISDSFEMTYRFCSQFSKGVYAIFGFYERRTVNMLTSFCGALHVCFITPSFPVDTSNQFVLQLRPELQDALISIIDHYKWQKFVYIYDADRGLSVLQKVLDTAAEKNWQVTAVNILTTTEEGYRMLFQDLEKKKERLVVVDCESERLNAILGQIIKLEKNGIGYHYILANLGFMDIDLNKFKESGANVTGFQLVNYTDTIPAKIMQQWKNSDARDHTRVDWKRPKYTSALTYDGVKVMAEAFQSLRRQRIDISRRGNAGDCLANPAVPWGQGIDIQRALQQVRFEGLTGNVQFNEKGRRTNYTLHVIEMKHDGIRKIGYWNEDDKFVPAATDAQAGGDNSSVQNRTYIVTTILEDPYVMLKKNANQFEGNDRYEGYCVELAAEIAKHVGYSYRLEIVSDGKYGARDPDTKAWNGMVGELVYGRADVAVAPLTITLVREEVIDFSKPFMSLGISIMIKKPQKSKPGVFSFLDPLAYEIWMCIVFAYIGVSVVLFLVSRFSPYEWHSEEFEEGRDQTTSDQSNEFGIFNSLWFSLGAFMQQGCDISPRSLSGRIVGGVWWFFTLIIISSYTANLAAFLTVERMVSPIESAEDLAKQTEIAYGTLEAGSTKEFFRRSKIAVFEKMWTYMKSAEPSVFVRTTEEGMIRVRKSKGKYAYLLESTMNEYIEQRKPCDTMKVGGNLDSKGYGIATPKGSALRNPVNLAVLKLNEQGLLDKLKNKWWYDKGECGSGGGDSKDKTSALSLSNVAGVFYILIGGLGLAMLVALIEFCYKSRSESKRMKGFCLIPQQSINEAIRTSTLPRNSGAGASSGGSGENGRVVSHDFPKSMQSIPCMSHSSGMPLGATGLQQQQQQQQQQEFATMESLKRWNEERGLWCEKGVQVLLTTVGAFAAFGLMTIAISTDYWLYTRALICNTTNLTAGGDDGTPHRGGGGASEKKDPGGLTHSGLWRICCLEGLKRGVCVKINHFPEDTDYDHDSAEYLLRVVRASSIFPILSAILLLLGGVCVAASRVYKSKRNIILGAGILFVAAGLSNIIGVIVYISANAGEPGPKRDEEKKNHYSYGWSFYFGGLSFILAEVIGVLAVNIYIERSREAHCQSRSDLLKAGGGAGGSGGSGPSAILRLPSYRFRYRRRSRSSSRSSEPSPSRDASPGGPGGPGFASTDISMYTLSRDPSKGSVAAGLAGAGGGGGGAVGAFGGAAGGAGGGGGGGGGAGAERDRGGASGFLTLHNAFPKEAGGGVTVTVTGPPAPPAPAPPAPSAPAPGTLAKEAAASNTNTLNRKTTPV

For the experiment, the target named is GluA1o-γ8 (GRIA1o-CACNG8 fusion construct) (Homo sapiens (Human), UniProt P42261+Q8WXS5). As to the kind of experiment: Calcium flux assay (FLIPR), inhibition of TARP γ8 dependent AMPA receptor activity. The settings on record: GluA1o-γ8 (GRIA1o-CACNG8 fusion) in HEK293 cells, calcium flux after 15 μM glutamate. In kind it is cell-based. The source says:
This assay was used to test compounds for their ability to inhibit TARP γ8 dependent AMPA receptor activity. The AMPA receptor is a non-selective cation channel activated by glutamate. Ionotropic glutamate receptors normally desensitize too rapidly to allow detectable calcium influx in a FLIPR assay (Strange et al. (2006). “Functional characterisation of homomeric ionotropic glutamate receptors GluR1-GluR6 in a fluorescence-based high throughput screening assay.” Comb Chem High Throughput Screen 9(2): 147-158). But, this desensitization is incomplete, and a substantial steady-state current remains in the sustained presence of glutamate (Cho et al. (2007). “Two families of TARP isoforms that have distinct effects on the kinetic properties of AMPA receptors and synaptic currents.” Neuron 55(6): 890-904).
An in vitro assay was used to determine the potency of test compounds as inhibitors of the glutamate response of the channel formed by GluA1o-γ8. To ensure a 1:1 stoichiometry of GluA1o and γ8 subunits in the expressed channel, a fusion of the cDNAs for GRIA1o and CACNG8 was used. Following Shi et al (2009) “The stoichiometry of AMPA receptors and TARPs varies by neuronal cell type.” Neuron 62(5): 633-640), the C-terminus of the cDNA for GRIA1o was fused to the N-terminus of the cDNA for γ8. The linker sequence was QQQQQQQQQQEFAT. Channels expressed with this construct appear to have similar properties to channels formed by co-expression of GRIA1o with an excess of CACNG8 (Shi et al. 2009). A clonal cell line in HEK293 cells stably expressing this construct, with a geneticin selection marker, was generated for use in this assay.
Cell expressing the GRIA1o-CACNG8 fusion construct were grown in a monolayer in 96- or 384-well microtiter plates. They were washed with assay buffer (135 mM NaCl, 4 mM KCl, 3 mM CaCl2, 1 mM MgCl2, 5 mM glucose, 10 mM HEPES, pH 7.4, 300 mOs) using a Biotek EL405 plate washer. The cells were then loaded with a calcium-sensitive dye (Calcium-5 or Calcium-6, Molecular Devices) and the test compounds at a range of concentrations. Calcium flux following the addition of 15 μM glutamate was monitored using a Molecular Devices FLIPR Tetra. The fluorescence in each well was normalized to the fluorescence of negative and positive control wells. The negative control wells had no added compounds, and the positive control wells had been incubated with 10 μM CP465022 (a non-subtype-selective AMPA receptor antagonist) (Lazzaro et al. (2002). “Functional characterization of CP-465,022, a selective, noncompetitive AMPA receptor antagonist.” Neuropharmacology 42(2): 143-153). The responses to glutamate as functions of the test compound concentrations were fitted to a four-parameter logistic function. The fitted parameter corresponding to the midpoint was taken to be the potency of inhibition of the compound. The data in Table 4 below illustrates the observed potentcy for the compounds described herein. pIC50 refers to the negative log of the IC50 in molar.
(In general: A change in cytosolic calcium serves as a functional read-out for many receptors and channels.)
Regarding `O=c1[nH]c2ccc(-n3c(-c4ccccc4)nc4ccc(C(F)(F)F)nc43)cc2s1` [Example 14, 6-[2-Phenyl-5-(trifluoromethyl)imidazo[4,5-b]pyridin-3-yl]-3H-1,3-benzothiazol-2-one], the IC50 (usually the concentration that inhibits the measured activity by half) was 0.158 nM.
`O=c1[nH]c2ccc(-n3c(-c4ccccc4)nc4ccc(F)nc43)cc2s1` [Example 15, 6-(5-Fluoro-2-phenyl-imidazo[4,5-b]pyridin-3-yl)-3H-1,3-benzothiazol-2-one]: the half-maximal inhibitory concentration (IC50) is 3.16 nM.
The same measure for `O=c1[nH]c2ccc(-n3c(-c4ccc(F)cc4)nc4ccc(C(F)(F)F)nc43)cc2s1` [Example 16, 6-[2-(4-Fluorophenyl)-5-(trifluoromethyl)imidazo[4,5-b]pyridin-3-yl]-3H-1,3-benzothiazol-2-one]: 0.631 nM.
As for `Cc1ccc2nc(-c3ccccc3)n(-c3ccc4[nH]c(=O)sc4c3)c2n1` [Example 17, 6-(5-Methyl-2-phenyl-imidazo[4,5-b]pyridin-3-yl)-3H-1,3-benzothiazol-2-one], the half-inhibitory concentration (IC50) was 0.501 nM.
To `COc1ccc2nc(-c3ccccc3)n(-c3ccc4[nH]c(=O)sc4c3)c2n1` [Example 18, 6-(5-Methoxy-2-phenyl-imidazo[4,5-b]pyridin-3-yl)-3H-1,3-benzothiazol-2-one] belongs 3.98 nM; to `CC(C)(C)c1nc2ccc(C(F)(F)F)nc2n1-c1ccc2[nH]c(=O)sc2c1` [Example 19, 6-[2-tert-Butyl-5-(trifluoromethyl)imidazo[4,5-b]pyridin-3-yl]-3H-1,3-benzothiazol-2-one], 1.26 nM; to `O=c1[nH]c2ccc(-n3c(-c4ccc(F)cc4)nc4cccnc43)cc2s1` [Example 20, 6-[2-(4-Fluorophenyl)imidazo[4,5-b]pyridin-3-yl]-3H-1,3-benzothiazol-2-one], 5.01 nM.
For the compound `O=c1[nH]c2ccc(-n3c(-c4ccc(F)cc4)nc4cccnc43)cc2[nH]1` [Example 21, 5-[2-(4-Fluorophenyl)imidazo[4,5-b]pyridin-3-yl]-1,3-dihydrobenzimidazol-2-one], the IC50 was 10 nM.
To `Fc1ccc(-c2nc3cccnc3n2-c2ccc3[nH]ncc3c2)cc1` [Example 22, 2-(4-Fluorophenyl)-3-(1H-indazol-5-yl)imidazo[4,5-b]pyridine] belongs 31.6 nM; to `O=C1Cc2cc(-n3c(-c4ccc(F)cc4)nc4cccnc43)ccc2N1` [Example 23, 5-[2-(4-Fluorophenyl)imidazo[4,5-b]pyridin-3-yl]indolin-2-one], 25.1 nM; to `O=c1[nH]c2ccc(-n3c(-c4ccc(F)cc4)nc4cccnc43)cc2o1` [Example 24, 6-[2-(4-Fluorophenyl)imidazo[4,5-b]pyridin-3-yl]-3H-1,3-benzoxazol-2-one], 316 nM.
In the case of `O=c1[nH]c2ccc(-n3c(-c4ccccc4)nc4cccnc43)cc2s1` [Example 25, 6-(2-Phenylimidazo[4,5-b]pyridin-3-yl)-3H-1,3-benzothiazol-2-one], the IC50 is 10 nM.
For the compound `c1ccc(-c2nc3cccnc3n2-c2ccc3[nH]ccc3c2)cc1` [Example 26, 3-(1H-Indol-5-yl)-2-phenyl-imidazo[4,5-b]pyridine], the IC50 was 501 nM.
Consider `Cc1ccc2nc(-c3ccc(F)cc3)n(-c3ccc4[nH]c(=O)sc4c3)c2n1` [Example 27, 6-[2-(4-Fluorophenyl)-5-methyl-imidazo[4,5-b]pyridin-3-yl]-3H-1,3-benzothiazol-2-one], for which the half-inhibitory concentration (IC50) was 0.794 nM.
Regarding `O=c1[nH]c2ccc(-n3c(-c4ccc(F)nc4)nc4cccnc43)cc2s1` [Example 28, 6-[2-(6-Fluoro-3-pyridyl)imidazo[4,5-b]pyridin-3-yl]-3H-1,3-benzothiazol-2-one], the IC50 was 251 nM.
For the compound `Cc1ccc2nc(-c3ccnc(F)c3)n(-c3ccc4[nH]c(=O)sc4c3)c2n1` [Example 29, 6-[2-(2-Fluoro-4-pyridyl)-5-methyl-imidazo[4,5-b]pyridin-3-yl]-3H-1,3-benzothiazol-2-one], the IC50 was 2.51 nM.
For `O=c1[nH]c2ccc(-n3c(-c4ccc(F)cc4)nc4ccc(Cl)nc43)cc2s1` [Example 30, 6-[5-Chloro-2-(4-fluorophenyl)imidazo[4,5-b]pyridin-3-yl]-3H-1,3-benzothiazol-2-one], the IC50 is 0.2 nM.
`O=c1[nH]c2ccc(-n3c(-c4ccnc(F)c4)nc4ccc(C(F)(F)F)nc43)cc2s1` [Example 31, 6-[2-(2-Fluoro-4-pyridyl)-5-(trifluoromethyl)imidazo[4,5-b]pyridin-3-yl]-3H-1,3-benzothiazol-2-one]: the IC50 was 0.251 nM.
`O=c1[nH]c2ccc(-n3c(-c4ccccc4)nc4ccc(Br)nc43)cc2s1` [Example 32, 6-(5-Bromo-2-phenyl-imidazo[4,5-b]pyridin-3-yl)-3H-1,3-benzothiazol-2-one]: the IC50 is 0.501 nM.
For the compound `O=C1Cc2cc(-n3c(-c4ccc(F)cc4)nc4ccc(C(F)(F)F)nc43)ccc2N1` [Example 33, 5-[2-(4-Fluorophenyl)-5-(trifluoromethyl)imidazo[4,5-b]pyridin-3-yl]indolin-2-one], the concentration for half-maximal inhibition (IC50) is 0.631 nM.
On to `O=C1Cc2cc(-n3c(-c4ccccc4)nc4cccnc43)ccc2N1` [Example 34, 5-(2-Phenylimidazo[4,5-b]pyridin-3-yl)indolin-2-one], for which the IC50 was 12.6 nM.
The same measure for `Cc1ccc2nc(-c3ccc(F)cc3)n(-c3ccc4c(c3)CC(=O)N4)c2n1` [Example 35, 5-[2-(4-Fluorophenyl)-5-methyl-imidazo[4,5-b]pyridin-3-yl]indolin-2-one]: 3.16 nM; for `O=C1Cc2cc(-n3c(-c4ccccc4)nc4ccc(C(F)(F)F)nc43)ccc2N1` [Example 36, 5-[2-Phenyl-5-(trifluoromethyl)imidazo[4,5-b]pyridin-3-yl]indolin-2-one]: 0.398 nM.
On to `O=C1Cc2cc(-n3c(-c4ccc(F)cc4)nc4ccc(F)nc43)ccc2N1` [Example 37, 5-[5-Fluoro-2-(4-fluorophenyl)imidazo[4,5-b]pyridin-3-yl]indolin-2-one], for which the IC50 is 6.31 nM.
`CC(C)c1nc2ccc(C(F)(F)F)nc2n1-c1ccc2c(c1)CC(=O)N2` [Example 38, 5-[2-Isopropyl-5-(trifluoromethyl)imidazo[4,5-b]pyridin-3-yl]indolin-2-one]: the concentration for half-maximal inhibition (IC50) is 1 nM.
Consider `O=c1[nH]c2ccc(-n3c(C4CCCC4)nc4ccc(C(F)(F)F)nc43)cc2s1` [Example 39, 6-[2-Cyclopentyl-5-(trifluoromethyl)imidazo[4,5-b]pyridin-3-yl]-3H-1,3-benzothiazol-2-one], for which the half-inhibitory concentration (IC50) is 0.2 nM.
In the case of `O=c1[nH]c2ccc(-n3c(C4CCCCC4)nc4ccc(C(F)(F)F)nc43)cc2s1` [Example 40, 6-[2-Cyclohexyl-5-(trifluoromethyl)imidazo[4,5-b]pyridin-3-yl]-3H-1,3-benzothiazol-2-one], the concentration for half-maximal inhibition (IC50) is 0.158 nM.
Regarding `O=c1[nH]c2ccc(-n3c(C4CC4)nc4ccc(C(F)(F)F)nc43)cc2s1` [Example 41, 6-[2-Cyclopropyl-5-(trifluoromethyl)imidazo[4,5-b]pyridin-3-yl]-3H-1,3-benzothiazol-2-one], the IC50 is 0.398 nM.
As for `O=c1[nH]c2ccc(-n3c(C4CCOCC4)nc4ccc(C(F)(F)F)nc43)cc2s1` [Example 42, 6-[2-Tetrahydropyran-4-yl-5-(trifluoromethyl)imidazo[4,5-b]pyridin-3-yl]-3H-1,3-benzothiazol-2-one], the IC50 was 39.8 nM.
The same measure for `FC(F)(F)c1ccc2nc(C3CC3)n(-c3ccc4[nH]ncc4c3)c2n1` [Example 43, 2-Cyclopropyl-3-(1H-indazol-5-yl)-5-(trifluoromethyl)imidazo[4,5-b]pyridine]: 2 nM.
Take `CCc1nc2ccc(C(F)(F)F)nc2n1-c1ccc2[nH]c(=O)sc2c1` [Example 44, 6-[2-Ethyl-5-(trifluoromethyl)imidazo[4,5-b]pyridin-3-yl]-3H-1,3-benzothiazol-2-one]: the IC50 is 0.398 nM.
On to `CC(C)c1nc2ccc(C(F)(F)F)nc2n1-c1ccc2[nH]c(=O)sc2c1` [Example 45, 6-[2-Isopropyl-5-(trifluoromethyl)imidazo[4,5-b]pyridin-3-yl]-3H-1,3-benzothiazol-2-one], for which the concentration for half-maximal inhibition (IC50) is 0.398 nM.

The values are drawn from US11312712B2, “Azabenzimidazoles and their use as AMPA receptor modulators” (Janssen Pharmaceutica NV, priority 2015, dated 2022).
